Measured values from ChEMBL document CHEMBL1156251, “Structure--activity relationships of polymyxin antibiotics” (J Med Chem, 2010).
In brackets after ≈: the same amount, converted by molar mass. Where a SMILES comes first, the peptide text is derived from it. Bridges are numbered along the chain shown (N, C = ends). [ ]: non-standard residue; d: D form. The star is where a group is joined. Heptanoyl(6-Me) = CC(C)CCCCC(=O)*; Octanoyl(6-Me) = CCC(C)CCCCC(=O)*; Octanoyl = CCCCCCCC(=O)*; Dab = NCC[C@H](N)C(=O)O; Ava = NCCCCC(=O)O

Key:
Escherichia coli = test: Antimicrobial activity against Escherichia coli; format: functional
Salmonella enterica = test: Antimicrobial activity against Salmonella enterica; format: functional
Pseudomonas aeruginosa = test: Antimicrobial activity against Pseudomonas aeruginosa; format: functional, organism-based

Row | MIC (Escherichia coli) | IC50 (Pseudomonas aeruginosa) | Compound | other results
1 | 1 µM | – | CCCCCCCC(=O)N[C@@H](CCN)C(=O)N[C@H](C(=O)N[C@@H](C)C(=O)N[C@H]1CCNC(=O)[C@H]([C@@H](C)O)NC(=O)[C@H](CCN)NC(=O)[C@H](CCN)NC(=O)[C@H](CC(C)C)NC(=O)[C@@H](Cc2ccccc2)NC(=O)[C@H](CCN)NC1=O)[C@@H](C)O (Octanoyl-[Dab]TA[Dab][Dab][dF]L[Dab][Dab]T; lactam 4-C) | MIC (Salmonella enterica): 1 µM (≈ 1.16 µg/mL); MIC (Pseudomonas aeruginosa): 2 µM (≈ 2.32 µg/mL)
2 | 0.2 µg/mL | – | CCC(C)CCCCC(=O)N[C@@H](CCCCN)C(=O)N[C@H](C(=O)N[C@@H](CCCCN)C(=O)N[C@H]1CCNC(=O)[C@H]([C@@H](C)O)NC(=O)[C@H](CCCCN)NC(=O)[C@H](CCCCN)NC(=O)[C@H](CC(C)C)NC(=O)[C@@H](Cc2ccccc2)NC(=O)[C@H](CCCCN)NC1=O)[C@@H](C)O (some centres undefined) | –
3 | – | 80 µg/mL (≈ 58.2 µM) | CCC(C)CCCCC(=O)N[C@@H](CCNC(N)=O)C(=O)N[C@H](C(=O)N[C@@H](CCNC(N)=O)C(=O)N[C@H]1CCNC(=O)[C@H]([C@@H](C)O)NC(=O)[C@H](CCNC(N)=O)NC(=O)[C@H](CCNC(N)=O)NC(=O)[C@H](CC(C)C)NC(=O)[C@@H](Cc2ccccc2)NC(=O)[C@H](CCN)NC1=O)[C@@H](C)O (some centres undefined) | –
4 | 2 µM | – | CC(C)C[C@@H]1NC(=O)[C@@H](CC(C)C)NC(=O)[C@H](CCN)NC(=O)[C@@H](NC(=O)[C@H](CCN)NC(=O)[C@@H](NC(=O)[C@H](CCN)NC(=O)CCCc2cc3ccc4cccc5ccc(c2)c3c45)[C@@H](C)O)CCNC(=O)[C@H]([C@@H](C)O)NC(=O)[C@H](CCN)NC(=O)[C@H](CCN)NC1=O | MIC (Salmonella enterica): 2 µM (≈ 2.6 µg/mL); MIC (Pseudomonas aeruginosa): 1 µM (≈ 1.3 µg/mL)
5 | – | 68 µg/mL (≈ 35.3 µM) | CCC(C)CCCCC(=O)N[C@@H](CCNc1cc(N)c([N+](=O)[O-])cc1[N+](=O)[O-])C(=O)N[C@@H](C(=O)N[C@@H](CCNc1cc(N)c([N+](=O)[O-])cc1[N+](=O)[O-])C(=O)N[C@H]1CCNC(=O)[C@@H]([C@@H](C)O)NC(=O)[C@H](CCNc2cc(N)c([N+](=O)[O-])cc2[N+](=O)[O-])NC(=O)[C@H](CCNc2cc(N)c([N+](=O)[O-])cc2[N+](=O)[O-])NC(=O)[C@H](CC(C)C)NC(=O)[C@@H](Cc2ccccc2)NC(=O)[C@H](CCN)NC1=O)[C@@H](C)O (some centres undefined) [TETRA 5-AMINO-2,4-DINITROPHENYL POLYMYXIN B] | –
6 | – | 7.6 µg/mL (≈ 6.17 µM) | CCC(C)CCCCC(=O)N[C@@H](CCNC=O)C(=O)N[C@H](C(=O)N[C@@H](CCN)C(=O)N[C@H]1CCNC(=O)[C@H]([C@@H](C)O)NC(=O)[C@H](CCN)NC(=O)[C@H](CCN)NC(=O)[C@H](CC(C)C)NC(=O)[C@@H](Cc2ccccc2)NC(=O)[C@H](CCN)NC1=O)[C@@H](C)O (some centres undefined) | –
7 | – | 60 µg/mL (≈ 44.7 µM) | CCC(C)CCCCC(=O)N[C@@H](CCNC=O)C(=O)N[C@H](C(=O)N[C@@H](CCNC=O)C(=O)N[C@H]1CCNC(=O)[C@H]([C@@H](C)O)NC(=O)[C@H](CCNC=O)NC(=O)[C@H](CCNC=O)NC(=O)[C@H](CC(C)C)NC(=O)[C@@H](Cc2ccccc2)NC(=O)[C@H](CCNC=O)NC1=O)[C@@H](C)O (some centres undefined) | –
8 | – | 70 µg/mL (≈ 58.4 µM) | CCC(C)CCCCC(=O)N[C@@H](CC=O)C(=O)N[C@H](C(=O)N[C@@H](CC=O)C(=O)N[C@H]1CCNC(=O)[C@H]([C@@H](C)O)NC(=O)[C@H](CC=O)NC(=O)[C@H](CC=O)NC(=O)[C@H](CC(C)C)NC(=O)[C@@H](Cc2ccccc2)NC(=O)[C@H](CC=O)NC1=O)[C@@H](C)O (some centres undefined) [Desamino Polymyxin B] | –
9 | 0.7 µg/mL | – | CCCCCC(=O)N[C@@H](CCN)C(=O)N[C@@H](C(=O)N[C@@H](CCN)C(=O)N[C@H]1CCNC(=O)[C@@H]([C@@H](C)O)NC(=O)[C@H](CCN)NC(=O)[C@H](CCN)NC(=O)[C@H](CC(C)C)NC(=O)[C@@H](Cc2ccccc2)NC(=O)[C@H](CCN)NC1=O)[C@@H](C)O [HEXANOYL FATTY ACYL POLYMYXIN B] | –
10 | – | 6.1 µg/mL (≈ 4.74 µM) | CCC(C)CCCCC(=O)N[C@@H](CCNC=O)C(=O)N[C@H](C(=O)N[C@@H](CCNC=O)C(=O)N[C@H]1CCNC(=O)[C@H]([C@@H](C)O)NC(=O)[C@H](CCN)NC(=O)[C@H](CCNC=O)NC(=O)[C@H](CC(C)C)NC(=O)[C@@H](Cc2ccccc2)NC(=O)[C@H](CCN)NC1=O)[C@@H](C)O (some centres undefined) | –

The next lines start with the compound.

Row | Compound | MIC (Escherichia coli) | IC50 (Pseudomonas aeruginosa) | other results
11 | CCC(C)CCCCC(=O)N[C@@H](CCN)C(=O)N[C@H](C(=O)N[C@@H](CCN)C(=O)N[C@H]1CCNC(=O)[C@H]([C@@H](C)O)NC(=O)[C@H](CCN)NC(=O)[C@H](CCN)NC(=O)CCCCNC(=O)[C@H](CCN)NC1=O)[C@@H](C)O (some centres undefined) ({Octanoyl(6-Me)}-[Dab]T[Dab][Dab][Dab][Ava][Dab][Dab]T; lactam 4-C) | 500 µg/mL | – | –
12 | CC(C)C[C@@H]1NC(=O)[C@@H](CC(C)C)NC(=O)[C@H](CCN)NC(=O)[C@@H](NC(=O)[C@H](CCN)NC(=O)[C@@H](NC(=O)[C@H](CCN)NC(=O)Cc2ccc(-c3ccccc3)cc2)[C@@H](C)O)CCNC(=O)[C@H]([C@@H](C)O)NC(=O)[C@H](CCN)NC(=O)[C@H](CCN)NC1=O | 1 µM | – | MIC (Salmonella enterica): 2 µM (≈ 2.45 µg/mL); MIC (Pseudomonas aeruginosa): 1 µM (≈ 1.22 µg/mL)
13 | CCC(C)CCCCC(=O)N[C@@H](CCNC=O)C(=O)N[C@H](C(=O)N[C@@H](CCNC=O)C(=O)N[C@H]1CCNC(=O)[C@H]([C@@H](C)O)NC(=O)[C@H](CCN)NC(=O)[C@H](CCN)NC(=O)[C@H](CC(C)C)NC(=O)[C@@H](Cc2ccccc2)NC(=O)[C@H](CCN)NC1=O)[C@@H](C)O (some centres undefined) | – | 4.2 µg/mL (≈ 3.33 µM) | –
14 | CCCCC(=O)N[C@@H](CCN)C(=O)N[C@@H](C(=O)N[C@@H](CCN)C(=O)N[C@H]1CCNC(=O)[C@@H]([C@@H](C)O)NC(=O)[C@H](CCN)NC(=O)[C@H](CCN)NC(=O)[C@H](CC(C)C)NC(=O)[C@@H](Cc2ccccc2)NC(=O)[C@H](CCN)NC1=O)[C@@H](C)O | 11 µg/mL | – | –
15 | CCC(C)CCCCC(=O)N[C@@H](CCNc1ccc([N+](=O)[O-])cc1[N+](=O)[O-])C(=O)N[C@@H](C(=O)N[C@@H](CCNc1ccc([N+](=O)[O-])cc1[N+](=O)[O-])C(=O)N[C@H]1CCNC(=O)[C@@H]([C@@H](C)O)NC(=O)[C@H](CCNc2ccc([N+](=O)[O-])cc2[N+](=O)[O-])NC(=O)[C@H](CCNc2ccc([N+](=O)[O-])cc2[N+](=O)[O-])NC(=O)[C@H](CC(C)C)NC(=O)[C@@H](Cc2ccccc2)NC(=O)[C@H](CCN)NC1=O)[C@@H](C)O (some centres undefined) [2,4-DINITROPHENYL POLYMYXIN B] | – | 73 µg/mL (≈ 39.1 µM) | –
16 | CCC(C)CCCCC(=O)N[C@@H](CCN)C(=O)N[C@H](C(=O)N[C@@H](CO)C(=O)N[C@H]1CCNC(=O)[C@H]([C@@H](C)O)NC(=O)[C@H](CCN)NC(=O)[C@H](CCN)NC(=O)[C@H](CC(C)C)NC(=O)[C@@H](CC(C)C)NC(=O)[C@H](CCN)NC1=O)[C@@H](C)O (some centres undefined) | 0.8 µg/mL | – | –
17 | CC(C)C[C@@H]1NC(=O)[C@@H](CC(C)C)NC(=O)[C@H](CCN)NC(=O)[C@@H](NC(=O)[C@H](CCN)NC(=O)[C@@H](NC(=O)[C@H](CCN)NC(=O)c2ccc3cc4ccccc4cc3c2)[C@@H](C)O)CCNC(=O)[C@H]([C@@H](C)O)NC(=O)[C@H](CCN)NC(=O)[C@H](CCN)NC1=O | 4 µM | – | MIC (Salmonella enterica): 2 µM (≈ 2.47 µg/mL); MIC (Pseudomonas aeruginosa): 2 µM (≈ 2.47 µg/mL)
18 | CCC(C)CCCCC(=O)N[C@@H](CCN)C(=O)N[C@H](C(=O)N[C@@H](CCN)C(=O)N[C@H]1CCNC(=O)[C@H]([C@@H](C)O)NC(=O)[C@H](CCN)NC(=O)[C@H](CCN)NC(=O)[C@H]([C@@H](C)CC)NC(=O)[C@@H](CC(C)C)NC(=O)[C@H](CCN)NC1=O)[C@@H](C)O (some centres undefined) | 0.4 µg/mL | – | –
19 | CCC(C)CCCCC(=O)N[C@@H](CCNCc1c(COP(=O)(O)O)cnc(C)c1O)C(=O)N[C@@H](C(=O)N[C@@H](CCNCc1c(COP(=O)(O)O)cnc(C)c1O)C(=O)N[C@H]1CCNC(=O)[C@@H]([C@@H](C)O)NC(=O)[C@H](CCNCc2c(COP(=O)(O)O)cnc(C)c2O)NC(=O)[C@H](CCNCc2c(COP(=O)(O)O)cnc(C)c2O)NC(=O)[C@H](CC(C)C)NC(=O)[C@@H](Cc2ccccc2)NC(=O)[C@H](CCN)NC1=O)[C@@H](C)O (some centres undefined) [PYRIDOXAL POLYMYXIN B] | – | 10.7 µg/mL (≈ 5.03 µM) | –
20 | CCC(C)CCCCC(=O)N[C@@H](CCNC=O)C(=O)N[C@H](C(=O)N[C@@H](CCNC=O)C(=O)N[C@H]1CCNC(=O)[C@H]([C@@H](C)O)NC(=O)[C@H](CCNC=O)NC(=O)[C@H](CCNC=O)NC(=O)[C@H](CC(C)C)NC(=O)[C@@H](Cc2ccccc2)NC(=O)[C@H](CCN)NC1=O)[C@@H](C)O (some centres undefined) | – | 42 µg/mL (≈ 31.9 µM) | –
21 | CCCC(=O)N[C@@H](CCN)C(=O)N[C@@H](C(=O)N[C@@H](CCN)C(=O)N[C@H]1CCNC(=O)[C@@H]([C@@H](C)O)NC(=O)[C@H](CCN)NC(=O)[C@H](CCN)NC(=O)[C@H](CC(C)C)NC(=O)[C@@H](Cc2ccccc2)NC(=O)[C@H](CCN)NC1=O)[C@@H](C)O [BUTANOYL FATTY ACYL POLYMYXIN B] | 23 µg/mL | – | –
22 | COLISTIN | 0.8 µg/mL | – | –
23 | CCC(C)CCCCC(=O)N[C@@H](CCNC(=O)n1ccc2ccccc21)C(=O)N[C@@H](C(=O)N[C@@H](CCNC(=O)n1ccc2ccccc21)C(=O)N[C@H]1CCNC(=O)[C@@H]([C@@H](C)O)NC(=O)[C@H](CCNC(=O)n2ccc3ccccc32)NC(=O)[C@H](CCNC(=O)n2ccc3ccccc32)NC(=O)[C@H](CC(C)C)NC(=O)[C@@H](Cc2ccccc2)NC(=O)[C@H](CCN)NC1=O)[C@@H](C)O (some centres undefined) [TETRA INDOLE ALDEHYDE POLYMYXIN B] | – | 10.2 µg/mL (≈ 5.74 µM) | –
24 | CC(C)CCCCC(=O)N[C@@H](CCN)C(=O)N[C@H](C(=O)N[C@@H](CCN)C(=O)N[C@H]1CCNC(=O)[C@H]([C@@H](C)O)NC(=O)[C@H](CCN)NC(=O)[C@H](CCN)NC(=O)[C@H](CC(C)C)NC(=O)[C@@H](CC(C)C)NC(=O)[C@H](CCN)NC1=O)[C@@H](C)O [COLISTIN B] ({Heptanoyl(6-Me)}-[Dab]T[Dab][Dab][Dab][dL]L[Dab][Dab]T; lactam 4-C) | 1.6 µg/mL | – | –
25 | CCC(C)CCCCCOC(=O)[C@H](CCCCN)NC(=O)C(NC(=O)[C@H](CCCCN)NC(=O)[C@H](CCCCN)NC(=O)[C@@H](NC(=O)[C@H](CCCCN)NC(=O)[C@@H](CCCCN)NC(=O)[C@H](CC(C)C)NC(=O)[C@@H](CCCCN)NC(=O)[C@@H](N)CC(C)C)[C@@H](C)O)[C@@H](C)O (single isomer, unassigned) | 100 µg/mL | – | –
26 | CCC(C)CCCCCOC(=O)[C@H](CCCCN)NC(=O)C(NC(=O)[C@H](CCCCN)NC(=O)[C@H](CCCCN)NC(=O)[C@@H](NC(=O)[C@H](CCCCN)NC(=O)[C@@H](CCCCN)NC(=O)[C@@H](N)CC(C)C)[C@@H](C)O)[C@@H](C)O (single isomer, unassigned) | 50 µg/mL | – | –
